The values below come from patent US4983328A, “N-(4-(3-aminopropyl)aminobutyl)-2-(ω-gua nidino-fatty-acid-amido(-2-substituted-ethanamide, salt thereof, and process for preparation thereof” (Bristol-Myers Company, priority 1981, dated 1991).

≈ marks a conversion by molar mass, not a printed value.

Data set [1] in a line: acute toxicity in mice (single intraperitoneal administration). Particulars: mouse, in vivo, ip; mice, single i.p.; read-out: LD50 (median lethal dose on single administration). How it is done: (§1) In Table 8 median lethal doses (LD50) of typical compounds of this invention are shown, measured in mice upon single intraperitoneal administration, as well as maximum tolerated doses in terms of total dose when a fixed amount per unit body weight was administered intraperitoneally to mice once a day for 6 consecutive days.
*Median lethal dose on single administration.

The test system of data set [2] is mouse leukemia L-1210 cells. Briefly: growth inhibitory activity to cancer cells in vitro (L-1210, 48 hours). Particulars: for inhibition at 5 µg/mL: L1210, 5 mcg/ml; for inhibition at 10 µg/mL: L1210, 10 mcg/ml; for inhibition at 20 µg/mL: L1210, 20 mcg/ml; for inhibition at 40 µg/mL: L1210, 40 mcg/ml; for inhibition at 80 µg/mL: L1210, 80 mcg/ml; for inhibition at 160 µg/mL: L1210, 160 mcg/ml; for IC50: L1210, L-1210 cells, read-out: 50% inhibitory concentration; for inhibition at 2.5 µg/mL: L1210, 2.5 mcg/ml. It is filed as cell-based. Here is the method: DBA/2 mice were implanted with 10^5 mouse leukemia L-1210 cells. The ascites collected asceptically from the mice after 4 days of feeding was washed three times with physiological saline to obtain L-1210 cells, which was then suspended in RPMI 1640 culture medium [G. E. Moore, Journal of the American Medical Association, Vol. 199, 519 (1967); H. J. Morton, In Vitro, Vol. 6, 89 (1970)] to which 10% fetal calf serum and 5 μM 2-mercaptoethanol had been added, and the resulting suspension was diluted to 5×10^4 L-1210 cells per 0.9 ml. A microplate carrying 0.9 ml of the cell suspension and 0.1 ml of the culture medium containing the sample being tested was kept in a carbon dioxide incubator at 37° C. After 48 hours of cultivation, the number of cells was measured by means of a Coulter Counter (Coulter Electronics, Inc., U.S.A.) to obtain the growth inhibition (%)=(1--T/C )×100=[1-(number of grown cells in medium containing sample/(number of grown cells in control medium)]×100. The 50% growth inhibitory concentration was calculated from the values of growth inhibition at varied sample concentrations. The results of tests on typical compounds of this invention for the growth inhibition of L-1210 cells were as shown in Table 6.

Data set [3] is described as follows: cumulative toxicity in mice (maximum tolerated dose, once a day for 6 consecutive days). The conditions noted are these: mouse, in vivo, ip, i.p. once a day for 6 consecutive days, total dose, read-out: Maximum Tolerated Dose (total dose not causing death). How it is done: as §1
**Maximum value of the total dose not causing death when a fixed amount
per unit body weight is administered to mice once a day for 6 consecutive

The subject of a further data set is mouse leukemia L-1210. Put plainly: therapeutic effect on implanted cancer in mice (L-1210, survival over 30 days). The format is in vivo, mouse (BDF1). Particulars: L1210, ip, 720 h, 6 days; for responders at 1.56 mg/kg / response vs control in vivo at 1.56 mg/kg: 1.56 mg/kg/day i.p.; for responders at 3.13 mg/kg / response vs control in vivo at 3.13 mg/kg: 3.13 mg/kg/day i.p.; for responders at 6.25 mg/kg / response vs control in vivo at 6.25 mg/kg: 6.25 mg/kg/day i.p.; for responders at 12.5 mg/kg / response vs control in vivo at 12.5 mg/kg: 12.5 mg/kg/day i.p.; for responders at 25 mg/kg / response vs control in vivo at 25 mg/kg: 25 mg/kg/day i.p.; for responders at 50 mg/kg / response vs control in vivo at 50 mg/kg: 50 mg/kg/day i.p.; for responders at 0.78 mg/kg / response vs control in vivo at 0.78 mg/kg: 0.78 mg/kg/day i.p. From the text:
BDF1 strain male mice (5 weeks old) were each inoculated intraperitoneally with 10^5 mouse leukemia L-1210 cells and treated once a day by intraperitoneal injection with a test compound dissolved in physiological saline for 6 consecutive days beginning from the day of inoculation. The mice were then observed for 30 days to determine the rate of prolongation of survival period=100×T/C=100×(average survival days of treated group)/(average survival days of control group).

[4] abbreviates: read-out: Growth inhibition (%), (1-T/C) × 100.
Setting [5] is: read-out: Number of mice survived for 30 days (converted).
The mark [6] stands for this setting: read-out: Prolongation of survival period (%), T/C × 100.

For `COC(NC(=O)CCCCCCCNC(=N)N)C(=O)NCCCCNCCCN` (stereo not drawn) [Compound 10, N-[4-(3-aminopropyl)aminobutyl]-2-(8-guanidinooctanamido)-2-methoxyethanamide], in data set [1], the LD50 lay in the range of 12.5 to 25 mg/kg. In data set [2] (setting [4]), the inhibition at 5 µg/mL was 19.9%, the inhibition at 10 µg/mL was 28.5%, the inhibition at 20 µg/mL is 36.5% and the inhibition at 40 µg/mL came out at 52.4%. Further, in data set [2] (setting [4]), the inhibition at 80 µg/mL stood at 62.4% and the inhibition at 160 µg/mL worked out at 79.5%. Moreover, in data set [2], the IC50 worked out at 39 µg/mL (≈ 93.8 µM). The MTD in data set [3] was greater than 75 mg/kg. Further, in the data set with mouse leukemia L-1210 (setting [5]), the responders at 1.56 mg/kg is 0%, the responders at 3.13 mg/kg is 0%, the responders at 6.25 mg/kg was 0% and the responders at 12.5 mg/kg was 0%. Moreover, in the data set with mouse leukemia L-1210 (setting [5]), the responders at 25 mg/kg is 0% and the responders at 50 mg/kg is 0%. Moreover, in the data set on mouse leukemia L-1210 (setting [6]), the response vs control in vivo at 1.56 mg/kg stood at 100%, the response vs control in vivo at 3.13 mg/kg came to 100%, the response vs control in vivo at 6.25 mg/kg came out at 107% and the response vs control in vivo at 12.5 mg/kg came to 129%. In addition, in the data set with mouse leukemia L-1210 (setting [6]), the response vs control in vivo at 25 mg/kg is 0% and the response vs control in vivo at 50 mg/kg amounted to 0%.

`N=C(N)NCCCCCCCC(=O)NC(O)C(=O)NCCCCNCCCN` (stereo not drawn) [Compound 5, N-[4-(3-aminopropyl)aminobutyl]-2-(8-guanidinooctanamido)-2-hydroxyethanamide]: in data set [1], the LD50 fell in the range of 25 to 50 mg/kg. Moreover, in data set [2] (setting [4]), the inhibition at 2.5 µg/mL came to 24.9%, the inhibition at 5 µg/mL was found to be 29.1%, the inhibition at 10 µg/mL came out at 40% and the inhibition at 20 µg/mL was 54.2%. Moreover, in data set [2] (setting [4]), the inhibition at 40 µg/mL amounted to 66%, the inhibition at 80 µg/mL was 88.5% and the inhibition at 160 µg/mL was 96.8%. For the same compound, the IC50 in data set [2] amounted to 18 µg/mL (≈ 44.8 µM). Further, the MTD in data set [3] was greater than 150 mg/kg. Further, in the data set on mouse leukemia L-1210 (setting [5]), the responders at 1.56 mg/kg was 0%, the responders at 3.13 mg/kg is 0%, the responders at 6.25 mg/kg was 0% and the responders at 12.5 mg/kg is 0%. Besides, in the data set on mouse leukemia L-1210 (setting [5]), the responders at 25 mg/kg is 0% and the responders at 50 mg/kg was 0%. Besides, in the data set on mouse leukemia L-1210 (setting [6]), the response vs control in vivo at 1.56 mg/kg came to 104%, the response vs control in vivo at 3.13 mg/kg came to 118%, the response vs control in vivo at 6.25 mg/kg is 125% and the response vs control in vivo at 12.5 mg/kg was 181%. In the data set on mouse leukemia L-1210 (setting [6]), the response vs control in vivo at 25 mg/kg amounted to 306% and the response vs control in vivo at 50 mg/kg amounted to 0%.

Regarding `N=C(N)NCCCCC=CC(=O)NC(O)C(=O)NCCCCNCCCN` (stereo not drawn) [Compound 16, N-[4-(3-aminopropyl)aminobutyl]-2-(7-guanidino-2-heptenamido)-2-hydroxyethanamide], the LD50 in data set [1] fell in the range of 25 to 50 mg/kg. Besides, in data set [2] (setting [4]), the inhibition at 2.5 µg/mL worked out at 22.6%, the inhibition at 5 µg/mL came out at 31.1%, the inhibition at 10 µg/mL was found to be 32.5% and the inhibition at 20 µg/mL was determined as 56.3%. Moreover, in data set [2], the IC50 turned out to be 17 µg/mL (≈ 44.1 µM). For the same compound, the MTD in data set [3] was greater than 150 mg/kg. In the data set with mouse leukemia L-1210 (setting [5]), the responders at 0.78 mg/kg is 0%, the responders at 1.56 mg/kg was 0%, the responders at 3.13 mg/kg was 50% and the responders at 6.25 mg/kg was 50%. In the data set on mouse leukemia L-1210 (setting [5]), the responders at 12.5 mg/kg was 50%, the responders at 25 mg/kg was 0% and the responders at 50 mg/kg was 0%. Moreover, in the data set on mouse leukemia L-1210 (setting [6]), the response vs control in vivo at 0.78 mg/kg is 129%, the response vs control in vivo at 1.56 mg/kg was determined as 233%, the response vs control in vivo at 3.13 mg/kg was greater than 343% and the response vs control in vivo at 6.25 mg/kg is greater than 350%. In the data set with mouse leukemia L-1210 (setting [6]), the response vs control in vivo at 12.5 mg/kg is greater than 354%, the response vs control in vivo at 25 mg/kg stood at 236% and the response vs control in vivo at 50 mg/kg is 0%.

As to `CCOC(NC(=O)C[C@@H](O)CCCCNC(=N)N)C(=O)NCCCCNCCCN` (stereo partly drawn) [Compound 23, N-[4-(3-aminopropyl)aminobutyl]-2-(7-guanidino-3-hydroxyheptanamido)-2-ethoxyethanamide], the LD50 in data set [1] was greater than 25 mg/kg. For the same compound, in data set [2] (setting [4]), the inhibition at 2.5 µg/mL was 58.5%, the inhibition at 5 µg/mL came out at 85.5%, the inhibition at 10 µg/mL was 93% and the inhibition at 20 µg/mL is 96.1%. In addition, the inhibition at 40 µg/mL in data set [2] (setting [4]) was found to be 96.4%. The IC50 in data set [2] was determined as 2.2 µg/mL (≈ 5.1 µM). The MTD in data set [3] is greater than 150 mg/kg. Also, in the data set with mouse leukemia L-1210 (setting [5]), the responders at 3.13 mg/kg was 0%, the responders at 6.25 mg/kg is 0%, the responders at 12.5 mg/kg is 0% and the responders at 25 mg/kg was 0%. For the same compound, in the data set on mouse leukemia L-1210 (setting [6]), the response vs control in vivo at 3.13 mg/kg came out at 104%, the response vs control in vivo at 6.25 mg/kg worked out at 119%, the response vs control in vivo at 12.5 mg/kg was 129% and the response vs control in vivo at 25 mg/kg stood at 200%.

As to `N=C(N)NCCCCCCC(O)CC(=O)NC(O)C(=O)NCCCCNCCCN` (stereo not drawn) [Compound 21, N-[4-(3-aminopropyl)aminobutyl]-2-(9-guanidino-3-hydroxynonanamido)-2-hydroxyethanamide], the LD50 in data set [1] was in the range of 25 to 50 mg/kg. In addition, the inhibition at 1.25 µg/mL in data set [2] (L1210, 1.25 mcg/ml, read-out: Growth inhibition (%), (1-T/C) × 100) came to 14.6%. In data set [2] (setting [4]), the inhibition at 2.5 µg/mL was 21.5%, the inhibition at 5 µg/mL was 29.7%, the inhibition at 10 µg/mL was 37.5% and the inhibition at 20 µg/mL was found to be 51.6%. For the same compound, in data set [2] (setting [4]), the inhibition at 40 µg/mL was 84% and the inhibition at 80 µg/mL worked out at 94.5%. In addition, in data set [2], the IC50 turned out to be 18 µg/mL (≈ 41.7 µM). Besides, in data set [3], the MTD is greater than 150 mg/kg. For the same compound, the responders at 0.2 mg/kg in the data set on mouse leukemia L-1210 (0.20 mg/kg/day i.p., read-out: Number of mice survived for 30 days (converted)) is 0%. Also, the response vs control in vivo at 0.2 mg/kg in the data set on mouse leukemia L-1210 (0.20 mg/kg/day i.p., read-out: Prolongation of survival period (%), T/C × 100) was 100%. Further, the responders at 0.39 mg/kg with mouse leukemia L-1210 (0.39 mg/kg/day i.p., read-out: Number of mice survived for 30 days (converted)) was 0%. In the data set with mouse leukemia L-1210 (0.39 mg/kg/day i.p., read-out: Prolongation of survival period (%), T/C × 100), the response vs control in vivo at 0.39 mg/kg turned out to be 100%. In the data set with mouse leukemia L-1210 (setting [5]), the responders at 0.78 mg/kg was 0%, the responders at 1.56 mg/kg was 0%, the responders at 3.13 mg/kg is 0% and the responders at 6.25 mg/kg is 0%. In addition, in the data set on mouse leukemia L-1210 (setting [5]), the responders at 12.5 mg/kg was 0%, the responders at 25 mg/kg was 0% and the responders at 50 mg/kg is 0%. In the data set with mouse leukemia L-1210 (setting [6]), the response vs control in vivo at 0.78 mg/kg is 100%, the response vs control in vivo at 1.56 mg/kg was found to be 114%, the response vs control in vivo at 3.13 mg/kg came to 129% and the response vs control in vivo at 6.25 mg/kg is 164%. In the data set on mouse leukemia L-1210 (setting [6]), the response vs control in vivo at 12.5 mg/kg amounted to 200%, the response vs control in vivo at 25 mg/kg worked out at 229% and the response vs control in vivo at 50 mg/kg stood at 0%.
